US9163018B2, “Method of treatment of age-related macular degeneration (AMD)” (Prana Biotechnology Limited, priority 2006, dated 2015)
Where two headings read alike, the source gives them in different places.

Key:
Aβ 1-42 = molecular target: T1, Aβ 1-42 (Homo sapiens, UniProt P05067); experiment: Fluorometric H2O2 assay (inhibition of Abeta H2O2 production); assay type: biochemical; conditions: concentration required to inhibit 50% of Abeta H2O2 production; read-out: H2O2 IC50
T1 construct: The reaction solutions contained Aβ 1-42 at concentrations
Summary of the method: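 Copper-dependent Aβ H2O2 production measured fluorometrically with deacetylated dichlorofluorescein plus HRP in PBS, pH 7.4. Incubation 60 min at 37 C, test compound included in wells. H2O2 quantified against H2O2 standards.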

[1] = system: M17 human neuroblastoma cells; experiment: Cytotoxicity, M17 human neuroblastoma cells; assay type: cell-based; conditions: for Cytotox (% viable) M17 cells at 1 μM: 1 μM test compound; for Cytotox (% viable) M17 cells at 10 μM: 10 μM test compound
Method: Assay 3. MTS Assay for Cell Viability
Cell viability is determined using the MTS assay. Culture medium is replaced with fresh neurobasal medium plus B27 supplements minus antioxidants. 1/10th volume MTS solution (Cell Titre 96 Aqueous One, Promega Corporation) and incubated at 37° C., 2 hrs. 200 microliter aliquots are measured with a spectrophotometer at 560 nm.

[2] = system: dityrosine oligomerization; experiment: CuTy: inhibition of dityrosine oligomerization; assay type: biochemical; conditions: referenced to in-house standard (set as 100% inhibition)
[3] = Toxicity, visual observations in mice; conditions: duration and visual observations
[4] = Mice plasma concentration after oral dose; assay type: in vivo; conditions: for Mice plasma concentration: 30 min to 4 h after single or repeat oral dose of 30 mg/kg
[5] = system: primary cortical neuronal cultured cells; experiment: Test compound cytotoxicity, MTS assay, primary cortical neuronal cultures; assay type: cell-based, mouse; conditions: for Cytotox (% viable) Neuronal cells at 1 μM: 1 μM test compound; for Cytotox (% viable) Neuronal cells at 10 μM: 10 μM test compound
Summary of the method: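 Primary cortical neurons were cultured five days in Neurobasal/B27, then exposed on day six to compounds (from 2.5 mM DMSO stocks) in medium minus antioxidants, in triplicate for 4 days at 37° C. Viability was measured by MTS, 2 h at 37° C, absorbance at 560 nm.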

Aβ deposits = conditions: 9 weeks; for Tg Mice % difference from control in Amyloid plaque abundance / Tg Mice % difference from control in insoluble brain amyloid burden / Tg Mice % difference from control in soluble brain amyloid burden: daily oral gavage 30 mg/kg, 13-14 months old transgenic mice
[6] = molecular target: T2, Abeta:Zn (25:50 μM) Synthetic Aggregations (Homo sapiens, UniProt P05067); experiment: Disaggregation of Abeta:Zn synthetic aggregates (ThT fluorescence); assay type: biochemical; conditions: for Disaggregation % Aggregate reduction at 5 μM: 5 μM test compound; for EC50: Abeta:Zn 25:50 μM aggregates
T2 construct: PB Compound Mediated Dissolution of Aggregated Abeta 1-42; purchased Keck Laboratory, Yale University School of Medicine
Summary of the method: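 Abeta1-42 (25 μM) with ZnCl2 (50 μM) and ThT (50 μM) in PBS pH 6.6 was preaggregated 24 h at 37 degrees with rotation. Aggregates were then exposed to compound (final 1-50 μM, DMSO) for 2 h at 37 degrees. ThT fluorescence was read at ex 450/em 480 nm.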

[7] = mouse, in vivo, 10 days
[8] = system: metal ions in retinal drusen; experiment: Post mortem retina screening, ZP1 zinc labeling of Bruch membrane; conditions: 15 hours incubation; TPEN 100 μM, PB-1033 100 and 250 μM; 10 μM ZP1
Method: Post Mortem Screening The BAS assay is adopted for post mortem retina. Using a trephine, 6 mm diameter regions of peripheral retina from frozen donor eyes are dissected. Following defrosting, the neuronal retina and the RPE cells are removed by gentle agitation in PBS buffer. Following removal of the RPE cells, strips of the Bruch membrane are cut from the eye. 4 samples are prepared: 1) Control […] Samples are then washed 3 times and the labeling visualized using a fluorescence and confocal microscope. A repeat of this procedure is performed with the exception that samples are incubated for a period of 15 hours before washing to determine differential metal binding over this longer period. The test results are in the form of fluorescence imaging from a confocal microscope of the 4 samples tested in this Example after 15 hours of sample incubation. […] Fluorescence microscopic photographs (which are in colour) are available upon request from the […].

[9] = system: Abeta in extract of post-mortem human AD brain tissue; experiment: BAS: human brain amyloid solubilization assay; assay type: biochemical; conditions: max effect across the concentration range, referenced to baseline PBS
Summary of the method: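 Plaque-bearing post-mortem AD cortex homogenised in ice-cold PBS pH 7.4; soluble Aβ in 100,000×g supernatant, insoluble Aβ from resuspended pellet. Fractions run on Tris-Tricine SDS-PAGE, immunoblotted with W02, densitometry against synthetic Aβ40 standards.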

[10] = E Log D, chromatographic method; assay type: physicochemical; conditions: pH 7.4
Method: Effective Log D values were measured using a chromatographic method employing a SUPELCOSIL LC-ABZ column using an octanol saturated mobile phase at pH 7.4.

T2 sequence (P05067 672-713 limits assumed): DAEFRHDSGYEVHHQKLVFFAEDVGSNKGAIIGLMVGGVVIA
T1 sequence (P05067 672-713 limits assumed): as above

In the case of `CCCc1cnc2c(O)cccn2c1=O` [PB 1149], the IC50 (Aβ 1-42) is reported as 0.3 µM, the “Cytotox (% viable) M17 cells at 1 μM” value [1] is reported as 79.1% and the “Cytotox (% viable) M17 cells at 10 μM” value [1] is reported as 45.2%. The “CuTy % inhibition of dityrosine oligomerization” value (from here on “CuTy % inhibition”) [2] was “CuTy: 95% inhibition”, the “Toxicity at 30 mg/kg” value [3] was 10 days, none and the Mice plasma concentration [4] was “Up to 690 ng/ml ng/mL”. The “Cytotox (% viable) Neuronal cells at 1 μM” value [5] was 86.2%, the “Cytotox (% viable) Neuronal cells at 10 μM” value [5] was 12.4% and the “Tg Mice % difference from control in Amyloid plaque abundance” value (Aβ deposits) was −45%. For the same molecule, the “Tg Mice % difference from control in insoluble brain amyloid burden” value (Aβ deposits) was “No change”, the “Tg Mice % difference from control in soluble brain amyloid burden” value (Aβ deposits) was “No change” and the “Disaggregation % Aggregate reduction at 5 μM” value [6] was 49%. For the same molecule, the EC50 [6] was 5 µM.
In the case of `O=c1c2ccc(I)c(O)c2ncn1-c1ccc(F)cc1F` [PB 1157], the IC50 (Aβ 1-42) is reported as 0.38 µM, the “Cytotox (% viable) M17 cells at 1 μM” value [1] is reported as 90.3% and the “Cytotox (% viable) M17 cells at 10 μM” value [1] is reported as 80.3%. The “Toxicity at 30 mg/kg” value [7] was 6 days, 2/4 deaths, the “Disaggregation % Aggregate reduction at 5 μM” value [6] was 45% and the EC50 [6] was 8.1 µM.
With `O=c1c2ccc(I)c(O)c2ncn1CC1CC1` [PB 1120] the IC50 (Aβ 1-42) was 0.28 µM, the “Cytotox (% viable) M17 cells at 1 μM” value [1] was 106.9% and the “Cytotox (% viable) M17 cells at 10 μM” value [1] was 62%. The “CuTy % inhibition” value [2] was “CuTy: 25% inhibition”, the “Toxicity at 30 mg/kg” value [3] was 10 days, none and the Mice plasma concentration [4] was “Up to 2508 ng/ mL ng/mL”. The “Tg Mice % difference from control in Amyloid plaque abundance” value (Aβ deposits) was “Decrease”, the “Tg Mice % difference from control in insoluble brain amyloid burden” value (Aβ deposits) was “No change” and the “Tg Mice % difference from control in soluble brain amyloid burden” value (Aβ deposits) was “No change”. For the same molecule, the “Disaggregation % Aggregate reduction at 5 μM” value [6] was 47.5% and the EC50 [6] was 5.6 µM.
In the case of `CC(C)n1cnc2c(O)c(I)ccc2c1=O` [PB 1153], the IC50 (Aβ 1-42) is reported as 0.32 µM, the “Toxicity at 30 mg/kg” value [7] is reported as 10 days, 1/4 deaths and the Mice plasma concentration [4] is reported as “Up to 277 ng/ml ng/mL”. The “Disaggregation % Aggregate reduction at 5 μM” value [6] was 53% and the EC50 [6] was 4.7 µM.
For `CCc1cnc2c(O)c(I)ccn2c1=O` [PB 1127], the IC50 (Aβ 1-42) was 0.28 µM, the “Cytotox (% viable) M17 cells at 1 μM” value [1] was 82.5% and the “Cytotox (% viable) M17 cells at 10 μM” value [1] was 23.3%. The “CuTy % inhibition” value [2] was 25% inhibit, the “Toxicity at 10 mg/kg” value ([3]; 10 mg/kg) was “At 10 mg/kg 10 days, none” and the “Mice plasma concentration at 10 mg/kg” value ([4]; oral dose 10 mg/kg) was “At 10 mg/kg: Up to 7082 ng/ mL ng/mL”. The “Tg Mice effect on brain amyloid burden and plaque at 10 mg/kg” value (Aβ deposits; daily oral gavage 10 mg/kg) was “At 10 mg/kg No effect”, the “Disaggregation % Aggregate reduction at 5 μM” value [6] was 55% and the EC50 [6] was 4.5 µM.
For `CCn1cnc2c(O)c(I)ccc2c1=S` [PB 1168], the IC50 (Aβ 1-42) was 0.4 µM, the “Cytotox (% viable) M17 cells at 1 μM” value [1] was 85.7% and the “Cytotox (% viable) M17 cells at 10 μM” value [1] was 43%. For the same molecule, the “Toxicity at 30 mg/kg” value [7] was 10 days, none, 1/4 mild signs, the Mice plasma concentration [4] was “Up to 400 ng/ ml ng/mL” and the “Disaggregation % Aggregate reduction at 5 μM” value [6] was 70%. It also gave an EC50 [6] of 1.11 µM.
For `CCCCc1cnc2c(O)cccn2c1=S` [PB 1148], the IC50 (Aβ 1-42) was 0.41 µM, the “Toxicity at 30 mg/kg” value [7] was 7 days, 2/4 deaths and the Mice plasma concentration [4] was “Up to 57 ng/ml ng/mL”. For the same molecule, the “Disaggregation % Aggregate reduction at 5 μM” value [6] was 70% and the EC50 [6] was 1.55 µM.
In the case of `CCn1cnc2c(O)c(I)cc(Cl)c2c1=O` [PB 1138], the IC50 (Aβ 1-42) is reported as 0.3 µM, the “Cytotox (% viable) M17 cells at 1 μM” value [1] is reported as 99.7% and the “Cytotox (% viable) M17 cells at 10 μM” value [1] is reported as 68.2%. The “Toxicity at 30 mg/kg” value [7] was 10 days, 2/4 deaths, the Mice plasma concentration [4] was “Up to 1802 ng/ mL ng/mL” and the “Disaggregation % Aggregate reduction at 5 μM” value [6] was 53%. It also gave an EC50 [6] of 4.7 µM.
In the case of `CCCCc1cnc2c(O)c(I)ccn2c1=O` [PB 1145], the IC50 (Aβ 1-42) is reported as 0.66 µM, the “Cytotox (% viable) M17 cells at 1 μM” value [1] is reported as 101.7% and the “Cytotox (% viable) M17 cells at 10 μM” value [1] is reported as 58.7%. The “Toxicity at 30 mg/kg” value [7] was 10 days, 2/4 death, the “Disaggregation % Aggregate reduction at 5 μM” value [6] was 28% and the EC50 [6] was 7.2 µM.
In the case of `c1ccc(CN(CCN(Cc2ccccn2)Cc2ccccn2)Cc2ccccn2)nc1` [TPEN, reference compound], the “ZP1 (zinc sensor) labeling of post mortem Bruch membrane” value [8] is reported as “inhibited ZP1 labeling”.
With `O=C(NCc1ccc(F)cc1)c1cnc2c(O)c(I)ccn2c1=O` [PB 1158] the IC50 (Aβ 1-42) was 0.99 µM, the “Cytotox (% viable) M17 cells at 1 μM” value [1] was 104.7% and the “Cytotox (% viable) M17 cells at 10 μM” value [1] was 56%. For the same molecule, the “Toxicity at 30 mg/kg” value [7] was 7 days, 4/4 deaths, the “Disaggregation % Aggregate reduction at 5 μM” value [6] was 10% and the EC50 [6] was > 20 µM.
For `CC(C)c1cnc2c(O)c(I)ccn2c1=O` [PB 1142], the IC50 (Aβ 1-42) was 0.37 µM, the “Cytotox (% viable) M17 cells at 1 μM” value [1] was 96.7% and the “Cytotox (% viable) M17 cells at 10 μM” value [1] was 44.2%. For the same molecule, the “Toxicity at 30 mg/kg” value [7] was 10 days, 1/4 death, the “Disaggregation % Aggregate reduction at 5 μM” value [6] was 42% and the EC50 [6] was 7.1 µM.
In the case of `CCCCNC(=O)c1cnc2c(O)c(I)ccn2c1=O` [PB 1160], the IC50 (Aβ 1-42) is reported as 0.75 µM, the “Cytotox (% viable) M17 cells at 1 μM” value [1] is reported as 85.3% and the “Cytotox (% viable) M17 cells at 10 μM” value [1] is reported as 63.4%. For the same molecule, the “CuTy % inhibition” value [2] was “CuTy: 95% inhibition”, the “Toxicity at 30 mg/kg” value [3] was 10 days, none and the Mice plasma concentration [4] was “Up to 27,598 ng/mL”. For the same molecule, the “Tg Mice % difference from control in Amyloid plaque abundance” value (Aβ deposits) was “decrease”, the “Tg Mice % difference from control in insoluble brain amyloid burden” value (Aβ deposits) was “No change” and the “Tg Mice % difference from control in soluble brain amyloid burden” value (Aβ deposits) was −25%. For the same molecule, the “Disaggregation % Aggregate reduction at 5 μM” value [6] was 56.8% and the EC50 [6] was 4.05 µM.
In the case of `O=C(NCCc1c[nH]cn1)c1ccc2c(Cl)cc(Cl)c(O)c2n1` [PB 1038], the IC50 (Aβ 1-42) is reported as 0.26 µM, the BAS max effect [9] is reported as 627% and the “ElogD (E)” value [10] is reported as 2.92. The Mice plasma concentration [4] was “Up to 2694 ng/ mL ng/mL”, the “Cytotox (% viable) Neuronal cells at 1 μM” value [5] was 91% and the “Cytotox (% viable) Neuronal cells at 10 μM” value [5] was 84%. The “Tg Mice % difference from control in Amyloid plaque abundance” value (Aβ deposits) was “Decrease”, the “Tg Mice % difference from control in insoluble brain amyloid burden” value (Aβ deposits) was “Decrease” and the “Tg Mice % difference from control in soluble brain amyloid burden” value (Aβ deposits) was “Increase”. The “Disaggregation % Aggregate reduction at 5 μM” value [6] was 51.3% and the EC50 [6] was 4.85 µM.
For `Nc1cc(Cn2cnc3c(O)c(Cl)cc(Cl)c3c2=O)ccn1` [PB 1250], the IC50 (Aβ 1-42) was 0.48 µM, the “Cytotox (% viable) M17 cells at 1 μM” value [1] was 114.8% and the “Cytotox (% viable) M17 cells at 10 μM” value [1] was 100.7%. The “Toxicity at 30 mg/kg” value [7] was 10 days, 1/4 deaths and the “CuTy % inhibition” value [2] was “CuTy: 80% inhibition”.
